Reference: patent US8476315B2, “N-hydroxy C29-amide derivatives of oleandrane” (Onepharm Research & Development GmbH, priority 2009, dated 2013)

Columns and labels:
11β-HSD1 = target: T1, 11β-HSD1 (Homo sapiens, UniProt P28845); assay: 11β-HSD1 activity in lysates of stably transfected HEK-293 cells; format: biochemical; details: cell lysate
T1 construct: expressed in transfected cells
Description: (§1) Cell culture media were purchased from Invitrogen, Basel, Switzerland. [1,2,6,7-3H]-cortisol was from Amersham Pharmacia, Dubendorf, Switzerland. [1,2,6,7-3H]-cortisone was produced by incubating 1 mCi of [1,2,6,7-3H]-cortisol with 1 mg of lysate of HEK-293 cells expressing 11β-HSD2 in the presence of 1 mM NAD+. Incubation was for 16 h at 37° C. […] The product was run for a second chromatographic purification step on the same TLC system. […] All other chemicals were from Fluka AG, Buchs, Switzerland and were of the highest grade available.
HEK-293 cells were transfected with the plasmid for expression of carboxy-terminally FLAG-epitope tagged 11β-HSD1 or 11β-HSD2, respectively, that were described previously. […] Non-resistant cells were removed by replacing the cell culture medium every third day for 3 weeks.
For determination of oxidative activity of 11β-HSD enzymes, cells were lysed by sonication and the cell lysate was diluted 1:12 in buffer TS2 (at 4° C.).
(§2) Similarly, reductase activity was measured in a reaction containing NADPH, 30 nCi of [1,2,6,7-3H]-cortisone and unlabeled cortisone, whereby final concentrations were 400 μM NADPH and 10 nM cortisone. […] Activities were determined measuring the conversion of either radiolabeled cortisone or cortisol for 5-20 min using substrate concentrations in the range between 10 nM and 10 μM. 11β-HSD1 activities were measured immediately after cell disruption. […] Results are expressed as mean±S.D. and consist of at least three independent measurements.

11β-HSD2 = target: T2, 11β-HSD2 (Homo sapiens, UniProt P80365); assay: 11β-HSD2 activity in lysates of stably transfected HEK-293 cells; format: biochemical; details: cell lysate
T2 construct: expressed in transfected cells
T2 sequence (P80365 1-405): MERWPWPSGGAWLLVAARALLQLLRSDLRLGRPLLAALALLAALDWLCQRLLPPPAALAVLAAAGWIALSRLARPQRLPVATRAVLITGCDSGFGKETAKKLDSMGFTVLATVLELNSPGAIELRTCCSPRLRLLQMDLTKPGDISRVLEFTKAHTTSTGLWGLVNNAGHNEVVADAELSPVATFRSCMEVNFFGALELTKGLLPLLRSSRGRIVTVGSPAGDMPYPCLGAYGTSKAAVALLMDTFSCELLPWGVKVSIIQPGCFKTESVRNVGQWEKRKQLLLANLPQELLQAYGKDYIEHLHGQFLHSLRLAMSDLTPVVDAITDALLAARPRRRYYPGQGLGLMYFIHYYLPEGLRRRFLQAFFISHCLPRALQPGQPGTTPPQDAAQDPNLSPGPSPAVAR
Description: as §1
HEK-293 cells were transfected with the plasmid for expression of carboxy-terminally FLAG-epitope tagged 11β-HSD1 or 11β-HSD2, respectively, that were described previously. […] Non-resistant cells were removed by replacing the cell culture medium every third day for 3 weeks. […]
as §2

CK-2 = details: 30 μM GA; cited from earlier work
[1] = test system: murine retinal ganglion cells; details: cited from earlier work
TNFα = TNFα expression; format: cell-based
Excerpt: Accordingly, in a further embodiment of the present invention, there is included a method of treating inflammatory diseases comprising administering a TNFα-downregulating effective amount of a compound of the invention to a subject in need thereof. A person skilled in the art would be able to identify TNFα-downregulating compounds of the invention by contacting one or more cells with a compound of the invention and assaying for the presence of one TNFα and comparing the levels of TNFα in the one or more cells with that of controls. Such methods are known in the art and are described in the examples herein below.

PKC and CK-I = details: GL (100 μM); cited from earlier work

T1 sequence (P28845 whole entry): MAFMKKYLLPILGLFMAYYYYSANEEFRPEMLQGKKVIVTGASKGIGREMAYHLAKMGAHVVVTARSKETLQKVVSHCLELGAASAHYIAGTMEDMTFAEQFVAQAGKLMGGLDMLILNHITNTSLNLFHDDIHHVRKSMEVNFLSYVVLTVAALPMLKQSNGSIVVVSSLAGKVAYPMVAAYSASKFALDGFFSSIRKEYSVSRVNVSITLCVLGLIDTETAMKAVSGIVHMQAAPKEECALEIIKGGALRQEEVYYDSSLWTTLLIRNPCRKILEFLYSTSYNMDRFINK

SMILES | IC50 (11β-HSD1) | IC50 (11β-HSD2) | other results
CC1(C)C2CC[C@]3(C)C(C(=O)C=C4C5C[C@@](C)(C(=O)NO)CC[C@]5(C)CC[C@]43C)[C@@]2(C)CC[C@@H]1O (stereo partly drawn) [Compound 2, (3S,18R,20S)-3-Hydroxy-N-hydroxy-11-oxo-olean-12-en-29-amide] | 1160 nM |  | inhibition at 1 µM (11β-HSD1; Concentration 1000 nmol/L, read-out: Reduction of 11β-HSD1 Activity (%) (average ± standard deviation)): 46.7 ± 13.8%
CONC(=O)[C@@]1(C)CC[C@]2(C)CC[C@]3(C)C(=CC(=O)C4[C@@]5(C)CC[C@H](O)C(C)(C)C5CC[C@]43C)C2C1 (stereo partly drawn) [Compound 16, (3S,18R,20S)-3-Hydroxy-N-methoxy-11-oxo-olean-12-en-29-amide] | 929 nM | 2130 nM | 
CC1(C)[C@@H](O)CC[C@]2(C)[C@H]3C(=O)C=C4[C@@H]5C[C@@](C)(C(=O)O)CC[C@]5(C)CC[C@@]4(C)[C@]3(C)CC[C@@H]12 [GA, Glycyrrhetinic acid] |  |  | phosphorylation of C3α by CK-2 (CK-2): completely inhibited; postsynaptic light response [1]: 30 % of control
CC(=O)O[C@H]1CC[C@@]2(C)C(CC[C@]3(C)C2C(=O)C=C2C4C[C@@](C)(C(=O)NO)CC[C@]4(C)CC[C@]23C)C1(C)C (stereo partly drawn) [Compound 1, (3S,18R,20S)-3-(Acetyloxy)-N-hydroxy-11-oxo-olean-12-en-29-amide] |  |  | TNFα expression (TNFα): inhibit
CON[C@H]1CC[C@@]2(C)C(CC[C@]3(C)C2C(=O)C=C2C4C[C@@](C)(C(=O)N(C)O)CC[C@]4(C)CC[C@]23C)C1(C)C (stereo partly drawn) [Compound 10, (3S,18R,20S)-N-Hydroxy-N-methyl-3-methoxamino-11-dioxo-olean-12-en-29-amide] | > 40000 nM | 547 nM | 
CC1(C)[C@@H](O[C@H]2O[C@H](C(=O)O)[C@@H](O)[C@H](O)[C@H]2O[C@@H]2O[C@H](C(=O)O)[C@@H](O)[C@H](O)[C@H]2O)CC[C@]2(C)[C@H]3C(=O)C=C4[C@@H]5C[C@@](C)(C(=O)O)CC[C@]5(C)CC[C@@]4(C)[C@]3(C)CC[C@@H]12 [GL, glycyrrhizin] |  |  | phosphorylation of HMGB1/2 by PKC and CK-I (PKC and CK-I): completely inhibits
